Experimental data as given in patent publication US11304926B2, “Application of transient receptor potential cation channel TRPV3 in developing drug for preventing or treating psoriasis” (CHINA PHARMACEUTICAL UNIVERSITY, priority 2019, dated 2022).

Legend:
[1] = system: mouse psoriasis model induced by 5% IMQ; assay: Content of related inflammatory factors (ELISA) in skin of mouse psoriasis model; type: in vivo
Method: Contents of IL17, IL23, CXCL15 and myeloperoxidase (MPO) in the skin of the mouse were detected by enzyme-linked immunosorbent assay (ELISA), and ELISA kits for various inflammatory factors were all purchased from ELISA Biotechnology Co., Ltd. Specific operation steps were briefly described as follows according to instructions: 50 mg of fresh skin sample was added with 450 μL of PBS (pH=7.2 to 7.4), homogenized on ice, and centrifuged at 5000 rpm for 15 minutes, and then a supernatant was used for detection. A standard substance was diluted according to a proportion, and a blank well, a standard substance well and a well for sample to be detected were set respectively. 50 μL of standard substance was accurately loaded to an ELISA coating plate, and 40 μL of sample diluent was added into the well for sample to be detected firstly, and then added with 10 μL of sample to be detected (a final dilution concentration of the sample was 5 times). The sample was loaded to bottoms of the wells in the ELISA plate without touching walls of the wells to the greatest extent, and then shaken and mixed gently. After sealing the plate with a microplate sealer, the mixture was incubated at 37° C. for 30 minutes. A 30-times concentrated cleaning solution was diluted 30 times with distilled water for later use. The microplate sealer was carefully removed, the liquid was discarded, and the remaining was subjected to spin-drying, and the cleaning solution was fully filled into each well, stood for 30 seconds and then discarded. The steps were repeated for 5 times, and then the mixture was patted dry. 50 μL of ELISA reagent was added into each well, except for the blank well. After sealing the plate with a microplate sealer, the mixture was incubated at 37° C. for 30 minutes. The microplate sealer was carefully removed, the liquid was discarded, and the remaining was subjected to spin-drying, and the cleaning solution was fully filled into each well, stood for 30 seconds and then discarded. […] An absorbance (OD value) of each well was measured sequentially at a wavelength of 450 nm. […]

[2] = system: mouse psoriasis model induced by 5% IMQ; assay: mRNA level of related inflammatory factors (qPCR) at lesion of mouse psoriasis model; type: in vivo; details: 5% IMQ model
Method: 20 mg of skin tissues were grinded to powder with liquid nitrogen, added with 0.5 mL of Trizol (Vazyme, article number: R401-01), and incubated on ice for 10 minutes. A split product was transferred to a 1.5 mL RNase-free centrifuge tube, added with 100 μL of chloroform, then shaken vigorously for 15 seconds, stood on ice for 2 minutes, and then centrifuged at 4° C. at 12000 rpm for 10 minutes. A water phase on an upper layer was absorbed into a new 1.5 mL RNase-free centrifuge tube, added with the same amount of isopropanol to precipitate RNA, and then centrifuged at 4° C. at 12000 rpm for 10 minutes. A supernatant was discarded, 500 μL of 75% ethyl alcohol prepared with DEPC water was added to wash the RNA precipitate, and then centrifuged at 4° C. at 12000 rpm for 5 minutes. A supernatant was discarded, the RNA precipitate was slightly dried, and the RNA was dissolved with 10 μL of DEPC water. 1 μL of the mixture was subjected to concentration detection by a detection instrument which was Nano-100 ultra-micro spectrophotometer (Hangzhou Aosheng Instrument Co., Ltd., article number: AS-11010). Another 500 ng of the RNA was subjected to a reverse transcription reaction, which was operated according to instructions of HiScript® II One Step RT-PCR Kit (Vazyme, article number: P611-01). A reverse transcription product was stored at −20° C. for later use. […]

[3] = ELISA, vs modeling mouse applied with IMQ

O=c1cc(-c2ccc(O)cc2)oc2cc(O)c(O)c(O)c12 [Scutellarein]
secretion of the related inflammatory factors ([1]; 5% IMQ model): obviously reduce | content of CXCL15 in the skin [1, 3]: significantly lower | content of MPO in the skin [1, 3]: significantly lower | transcription (mRNA level) of the related inflammatory factors [2]: obviously reduce
